Measured values from US20070055448A1, “Primary rat hepatocyte toxicity modeling” (Gene Logic Inc., priority 2003, published 2007).
Blank lines part the entries; values can stand above or below the molecule they belong to.

Columns and labels:
[1] = AY-25329 repeated-dose rat study: serum chemistry and light microscopy; format: in vivo, rats
Description: The present inventors have noted indications of liver and renal effects of AY-25329 by changes in serum chemistry. […] Most of these markers of renal and liver dysfunction remained altered throughout the 14 day study period.

[2] = 0.1, 1, 2, 3, 4 mL/kg ip; 2.5 mL/kg po; peak within 48 hours post dose; cited from earlier work
[3] = dogs, after treatment; cited from earlier work
[4] = 180 reported cases; cited from earlier work
[5] = Lovastatin rat dosing study: liver tissue examination; format: in vivo, rats
[6] = oral doses; cited from earlier work
[7] = human, in vivo; cited from earlier work

Compound: O=C(CCN1CCN2CCCC2C1)N1c2ccccc2Sc2ccc(Cl)cc21 (stereo not shown) [AY-25329]
histopathology of kidney and liver ([1]; 14 days of repeated dosing, 250 mg/kg/day): nephrosis and alterations in the peripheral lobes of the liver and in the cytoplasm of hepatocytes were evident | light microscopic analysis of the liver ([1]; as early as 6 and 24 hours): increased number of hepatocytic mitotic figures and decreased glycogen content | serum levels of creatinine, BUN, ALT, triglycerides and cholesterol ([1]; as early as 6 hours after the first dose, most markers remained altered throughout the 14 day study period): statistically significant increases

Compound: ClC(Cl)(Cl)Cl [CCl4, carbon tetrachloride]
peak increase of ALT and AST levels [2]: 5-10 fold

Compound: Cl.Nc1nc2c(Cc3ccsc3)c[nH]c2c(=O)[nH]1.O [CI-1000, 4H-pyrrolo:3,2-d:pyrimidin-4-one, 2-amino-3,5-dihydro-7-(3-thienylmethyl)-monohydrochloride monohydrate]
serum ALT levels [3]: increased serum ALT levels

Compound: O=C(O)Cc1ccccc1Nc1c(Cl)cccc1Cl [diclofenac]
jaundice among symptomatic patients [4]: 75 % of the symptomatic patients

effects in liver tissue ([5]; 9 or 90 mg/kg twice a day, after 6 or after 24 hours): no effects were noted | liver cell changes ([5]; after 14 days of treatment at the higher dosage (90 mg/kg twice a day)): abnormal vacuolization of the cytoplasm
Compound: CC[C@H](C)C(=O)O[C@H]1C[C@@H](C)C=C2C=C[C@H](C)[C@H](CC[C@@H]3C[C@@H](O)CC(=O)O3)[C@H]21 [lovastatin]
metabolites excreted in the urine [6]: less than 13%

Compound: CCCC(CCC)C(=O)O [valproate, n-dipropylacetic acid]
patients with elevated levels of hepatic enzymes [7]: about 40 % of patients
